Source: BindingDB's records for doi:10.1016/j.bmcl.2008.04.031 (The University of Tokyo, 2008)

Assay: Degradation promoting activity of FLAG tagged cIAP1 expressed in human HT1080 cells after 3 hrs by Western blotting analysis

IC50 [nM] | SMILES
1860 | CC(C)C[C@H](NC(=O)[C@@H](O)[C@H](N)Cc1ccccc1)C(=O)OCCNS(=O)(=O)c1cccc2c(N(C)C)cccc12 [(S)-2-(1-(dimethylamino)naphthalene-5-sulfonamido)ethyl 2-((2S,3R)-3-amino-2-hydroxy-4-phenylbutanamido)-4-methylpentanoate]
690 | COC(=O)[C@H](CC(C)C)NC(=O)[C@@H](O)[C@H](N)Cc1ccccc1 [(S)-methyl 2-((2S,3R)-3-amino-2-hydroxy-4-phenylbutanamido)-4-methylpentanoate]
